# Legend:
# RecG = molecular target: T1, RecG (Thermotoga maritima, UniProt Q9WY48); assay: Stopped-flow mantATP binding in the absence of DNA
# T1 construct: made in house
# T1 sequence (Q9WY48 1-780): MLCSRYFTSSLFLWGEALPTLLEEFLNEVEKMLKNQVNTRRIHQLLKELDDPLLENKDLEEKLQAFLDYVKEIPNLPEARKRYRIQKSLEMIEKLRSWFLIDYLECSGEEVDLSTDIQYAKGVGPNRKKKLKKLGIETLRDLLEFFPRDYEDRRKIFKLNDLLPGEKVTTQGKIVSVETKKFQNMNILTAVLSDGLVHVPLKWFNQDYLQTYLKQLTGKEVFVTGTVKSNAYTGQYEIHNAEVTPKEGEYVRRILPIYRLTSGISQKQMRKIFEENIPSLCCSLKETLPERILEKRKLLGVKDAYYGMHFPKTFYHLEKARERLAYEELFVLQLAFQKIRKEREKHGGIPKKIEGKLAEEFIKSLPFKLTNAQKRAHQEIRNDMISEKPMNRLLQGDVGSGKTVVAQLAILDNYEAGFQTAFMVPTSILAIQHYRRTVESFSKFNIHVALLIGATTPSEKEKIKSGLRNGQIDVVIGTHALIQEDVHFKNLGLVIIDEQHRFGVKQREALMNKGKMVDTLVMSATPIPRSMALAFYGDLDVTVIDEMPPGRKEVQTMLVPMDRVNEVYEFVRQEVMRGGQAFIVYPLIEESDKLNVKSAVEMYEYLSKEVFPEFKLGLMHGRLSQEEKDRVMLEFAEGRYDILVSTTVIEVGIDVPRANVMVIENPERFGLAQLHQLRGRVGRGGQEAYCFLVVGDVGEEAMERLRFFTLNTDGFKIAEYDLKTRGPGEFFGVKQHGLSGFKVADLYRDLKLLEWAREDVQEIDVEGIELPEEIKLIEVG
# Text: The kinetics of specific steps of the ATPase cycle were investigated in the absence of DNA, to determine which are modulated by the interaction with DNA. For the association measurements between RecG and mantATP, RecG was mixed with excess mantATP in the stopped-flow apparatus and the fluorescence followed with time. Following fitting by single exponentials, there was a linear relationship between the observed rate constant and nucleotide concentration (Figure S3A).
# As done for the RecG⋅DNA complex, measurements were also taken with an excess of RecG over mantATP (Figure S3B). A large, relative rapid, increase in mant fluorescence was observed followed by a small gradual increase. The rate constants are consistent with those at excess mantATP. Under the same conditions of excess RecG over mantATP, mantATP cleavage (acid quench) and Pi release were measured (Figure S3B). […] The cleavage step rate constant was 4×10^−4 s^−1, ∼10^3 slower than in the presence of DNA. […] The cleavage step was greatly stimulated by DNA.
# Supplementary file pone.0038270.s003.tif: Figure S3 Kinetic measurements in the absence of DNA. (A) Association kinetics with mantATP. Dependence of the observed rate constants on mantATP concentration from mixing 0.5 µM RecG with excess mantATP under the same conditions as Figure 3. Points shown are typically an average of three individual measurements. The best linear fit gives a slope of 0.4 (±0.15) µM^−1 s^−1 and intercept 1.7 (±0.6) s^−1. (B) Fluorescence trace upon mixing 2.5 µM RecG with 0.5 µM mantATP under the conditions of Figure 4. The trace was fitted by an exponential and a slope giving rates of 0.42 (±0.12) s^−1 for the former. Note that as the fluorescence slowly increases beyond the time course, it was not possible to calibrate the ordinate. Inset: Hydrolysis and Pi release for these conditions. The circles represent single time points for a quenched-flow measurement of mantADP formation. Pi release kinetics (continuous line) were measured for the same mixture containing 10 µM MDCC-PBP. (TIF) Click here for additional data file.
# RecG⋅DNA(A40:B40) = molecular target: T2, RecG⋅DNA(A40:B40) (Thermotoga maritima, UniProt Q9WY48); assay: Single turnover Pi release kinetics with MDCC-PBP; type: biochemical
# T2 construct: made in house
# T2 sequence (Q9WY48 1-780): T1 sequence (Q9WY48 1-780)
# Description: Using the phosphate biosensor, MDCC-PBP [13], the kinetics of Pi release were measured under the same conditions (Figure 4A). Fitting the trace by a lag then a single exponential increase gave rate constants of 3.3 s^−1 and 0.21 s^−1. This rate constant for the lag was similar to the observed rate constant for binding at this concentration. The exponential increase had the same rate constant for the slow phase of the mant fluorescence and for the quench-flow measurement of mantADP formation. Thus Pi release occurs rapidly, following the rate-determining cleavage step.
# Stopped-flow experiments were performed in a HiTech SF61DX2 apparatus (TgK Scientific Ltd, Bradford-on-Avon, UK) with a mercury-xenon light source and HiTech KinetAsyst 3 or Kinetic Studio 1 software. For MDCC-PBP fluorescence, the excitation wavelength used was 436 nm and a 455 nm cut-off filter (Schott glass) used to collect emitted light. The signal was calibrated using known concentrations of Pi. The solutions contained the Pi mop, to minimize phosphate contamination and comprising 0.01 unit ml^−1 bacterial purine nucleoside phosphorylase and 200 µM 7-methylguanosine. For mant fluorescence, 366 nm was used to excite and a 400 nm cut-off filter (Schott glass) used to collect light. Measurements of Cy3 fluorescence used 547 nm excitation and a 570 nm cut-off filter. In experiments described, the quoted concentrations are those in the mixing chamber, except where stated. Data were fitted to theoretical curves using the HiTech software or Grafit.
# [1] = 0.5 µM mantATP, 2.5 µM RecG, 5 µM DNA
compound,measurement,setting,value
"CNc1ccccc1C(=O)O[C@H]1[C@@H](O)[C@H](n2cnc3c(N)ncnc32)O[C@@H]1COP(=O)(O)OP(=O)(O)OP(=O)(O)O [mantATP, 2′(3′)-O-(N-methylanthraniloyl)ATP]",intercept (dissociation),"RecG; 0.5 µM RecG, excess mantATP",1.7 (±0.6) s^−1
same,second order association rate constant (slope),"RecG; 0.5 µM RecG, excess mantATP",0.4 (±0.15) µM^−1s^−1
same,rate of exponential fluorescence increase,RecG; 2.5 µM RecG with 0.5 µM mantATP,0.42 (±0.12) s^−1
same,Kd,RecG; from intercept and slope,4.25 µM
same,Pi release: rate constant of exponential increase,RecG⋅DNA(A40:B40); [1],0.21 s⁻¹
same,Pi release: rate constant of lag,RecG⋅DNA(A40:B40); [1],3.3 s⁻¹
same,k +3 (Pi release),"RecG⋅DNA(A40:B40); 20°C, Table 2 summary",>10 s⁻¹

# — PMC3368886, “ATPase Cycle and DNA Unwinding Kinetics of RecG Helicase” (PLoS ONE, 2012)
